Laboratory results published in patent US9790228B2, “Heterocyclic kinase inhibitors” (Intellikine LLC, priority 2008, dated 2017).

Target: p110α/p85α (Homo sapiens (Human), UniProt P42336)
Assay: PI3K α inhibition assay (TLC lipid kinase or HTRF)
Type: biochemical
Conditions: not given
Summary of the method: (§1)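 IC50 from TLC lipid kinase assay (25 mM HEPES pH 7.4, 10 mM MgCl2, 100 μg/ml phosphatidylinositol, 10 or 100 μM γ-32P-ATP, 5 min RT, phosphorimager) at 10–12 two-fold dilutions, or HTRF (10 μM PIP2, 10 μM ATP, 1 h RT) measuring PIP3 by TR-FRET; 2% DMSO final.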

p110α/p85α, sequence (P42336 whole entry): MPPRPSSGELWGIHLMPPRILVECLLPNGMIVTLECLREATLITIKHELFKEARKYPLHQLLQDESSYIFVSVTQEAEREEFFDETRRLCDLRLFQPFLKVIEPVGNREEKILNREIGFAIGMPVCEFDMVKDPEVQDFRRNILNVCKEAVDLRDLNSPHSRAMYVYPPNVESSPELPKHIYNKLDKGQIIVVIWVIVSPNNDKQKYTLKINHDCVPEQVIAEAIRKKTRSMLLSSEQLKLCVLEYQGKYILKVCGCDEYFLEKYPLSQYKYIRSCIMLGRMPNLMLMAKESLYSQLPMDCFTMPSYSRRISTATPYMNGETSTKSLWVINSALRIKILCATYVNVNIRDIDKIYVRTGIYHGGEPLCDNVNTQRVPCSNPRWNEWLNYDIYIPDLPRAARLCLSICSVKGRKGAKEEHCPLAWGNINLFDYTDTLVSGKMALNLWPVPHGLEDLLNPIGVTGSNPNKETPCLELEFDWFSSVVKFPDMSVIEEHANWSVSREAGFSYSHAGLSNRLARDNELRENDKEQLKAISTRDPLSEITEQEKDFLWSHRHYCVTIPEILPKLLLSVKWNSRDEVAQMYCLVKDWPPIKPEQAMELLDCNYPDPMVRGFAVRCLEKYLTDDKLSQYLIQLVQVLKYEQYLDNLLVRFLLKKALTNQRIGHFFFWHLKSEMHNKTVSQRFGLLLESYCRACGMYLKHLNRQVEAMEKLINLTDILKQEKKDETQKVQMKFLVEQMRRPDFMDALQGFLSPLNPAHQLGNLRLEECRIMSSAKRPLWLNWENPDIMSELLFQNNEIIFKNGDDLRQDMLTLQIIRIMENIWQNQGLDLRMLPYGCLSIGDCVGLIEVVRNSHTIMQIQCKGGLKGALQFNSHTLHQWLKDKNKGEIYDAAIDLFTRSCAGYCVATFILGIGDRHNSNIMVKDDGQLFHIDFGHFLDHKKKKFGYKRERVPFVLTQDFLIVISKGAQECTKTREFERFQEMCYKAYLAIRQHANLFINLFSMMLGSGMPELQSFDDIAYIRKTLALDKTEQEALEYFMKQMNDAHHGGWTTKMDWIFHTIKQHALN
p110α/p85α, sequence (P27986 whole entry partner): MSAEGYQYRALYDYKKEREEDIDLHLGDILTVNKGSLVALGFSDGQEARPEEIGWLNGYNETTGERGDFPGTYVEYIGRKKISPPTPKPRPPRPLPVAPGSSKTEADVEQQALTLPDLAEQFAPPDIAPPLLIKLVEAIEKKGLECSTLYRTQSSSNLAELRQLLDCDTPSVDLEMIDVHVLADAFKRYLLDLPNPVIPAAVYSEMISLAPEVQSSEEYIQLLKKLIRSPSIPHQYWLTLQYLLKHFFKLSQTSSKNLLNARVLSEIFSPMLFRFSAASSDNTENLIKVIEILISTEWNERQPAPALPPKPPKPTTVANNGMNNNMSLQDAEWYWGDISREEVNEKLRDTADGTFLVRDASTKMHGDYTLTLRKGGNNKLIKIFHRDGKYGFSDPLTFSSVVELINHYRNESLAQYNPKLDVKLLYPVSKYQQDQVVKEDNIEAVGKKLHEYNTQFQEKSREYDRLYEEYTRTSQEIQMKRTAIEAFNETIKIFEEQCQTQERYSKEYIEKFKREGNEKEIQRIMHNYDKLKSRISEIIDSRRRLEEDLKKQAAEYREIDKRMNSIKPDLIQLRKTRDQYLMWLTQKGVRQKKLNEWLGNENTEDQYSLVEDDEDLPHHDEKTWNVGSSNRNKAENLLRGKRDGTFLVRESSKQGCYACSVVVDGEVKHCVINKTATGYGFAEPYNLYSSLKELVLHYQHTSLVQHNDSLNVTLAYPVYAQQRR

| SMILES | IC50 [nM] |
| --- | --- |
| CC(=O)Nc1nc2ccc(-c3nn(Cc4cc5ccccc5nc4CCN4CCCC4)c4ncnc(N)c34)cc2s1 [Compound 166] | 100 to 1000 |
| CC(C)Oc1nc2ccccc2cc1Cn1nc(-c2ccc3nc(N)sc3c2)c2c(N)ncnc21 [Compound 159] | 100 to 1000 |
| Nc1ncc2cc(-c3nn(Cc4cc5ccccc5nc4N4CCOCC4)c4ncnc(N)c34)ccc2n1 [Compound 139] | < 100 |
| Nc1ncnc2c1c(-c1cc(O)cc(F)c1)nn2Cc1cc2ccccc2nc1-c1ccccc1 [Compound 57] | 100 to 1000 |
| CC(C)c1ccccc1-c1nc2ccccc2cc1Cn1nc(-c2cc(O)cc(F)c2)c2c(N)ncnc21 [Compound 17] | 100 to 1000 |
| Nc1ncnc2c1c(-c1cc(O)cc(F)c1)nn2Cc1cc2ccccc2nc1N1CCOCC1 [Compound 63] | > 1000 |
| Cc1ccccc1-c1nc2ccccc2cc1Cn1nc(-c2ccc3oc(N)nc3c2)c2c(N)ncnc21 [Compound 133] | > 1000 |
| Nc1ccc2cc(-c3nn(Cc4cc5ccccc5nc4-c4ccccc4)c4ncnc(N)c34)ccc2n1 [Compound 144] | 100 to 1000 |
| Nc1nc2cc(-c3nn(Cc4cc5ccccc5nc4-c4ccccc4F)c4ncnc(N)c34)ccc2o1 [Compound 137] | > 1000 |
| CC(Nc1ncnc2[nH]cnc12)c1cc2ccccc2nc1N1CCN(C)CC1 (centres unmarked) [Compound 82] | > 1000 |
| Nc1nc2cc(-c3nn(Cc4cc5ccccc5nc4N4CCCC4)c4ncnc(N)c34)ccc2[nH]1 [Compound 153] | < 100 |
| CCC(c1cc2ccccc2nc1N1CCCC1)n1nc(-c2cccc(O)c2)c2c(N)ncnc21 (centres unmarked) [Compound 39] | > 1000 |
| Cc1ccccc1-c1nc2ccccc2cc1Cn1nc(-c2ccc3ncnc(N)c3c2)c2c(N)ncnc21 [Compound 134] | > 1000 |
| CC(C)N1CCN(c2nc3ccccc3cc2Cn2nc(-c3cc(O)cc(F)c3)c3c(N)ncnc32)CC1 [Compound 69] | > 1000 |
| Nc1ncnc2c1c(-c1ccc3cn[nH]c3c1)nn2CC1=Cc2ccccc2NC1N1CCCC1 (centres unmarked) [Compound 81] | > 1000 |
| CN1CCN(c2nc3ccccc3cc2Cn2nc(-c3ccc4cc(N)sc4c3)c3c(N)ccnc32)CC1 [Compound 80] | < 100 |

Target: p110δ/p85α (Homo sapiens (Human), UniProt O00329)
Sequence (O00329 whole entry): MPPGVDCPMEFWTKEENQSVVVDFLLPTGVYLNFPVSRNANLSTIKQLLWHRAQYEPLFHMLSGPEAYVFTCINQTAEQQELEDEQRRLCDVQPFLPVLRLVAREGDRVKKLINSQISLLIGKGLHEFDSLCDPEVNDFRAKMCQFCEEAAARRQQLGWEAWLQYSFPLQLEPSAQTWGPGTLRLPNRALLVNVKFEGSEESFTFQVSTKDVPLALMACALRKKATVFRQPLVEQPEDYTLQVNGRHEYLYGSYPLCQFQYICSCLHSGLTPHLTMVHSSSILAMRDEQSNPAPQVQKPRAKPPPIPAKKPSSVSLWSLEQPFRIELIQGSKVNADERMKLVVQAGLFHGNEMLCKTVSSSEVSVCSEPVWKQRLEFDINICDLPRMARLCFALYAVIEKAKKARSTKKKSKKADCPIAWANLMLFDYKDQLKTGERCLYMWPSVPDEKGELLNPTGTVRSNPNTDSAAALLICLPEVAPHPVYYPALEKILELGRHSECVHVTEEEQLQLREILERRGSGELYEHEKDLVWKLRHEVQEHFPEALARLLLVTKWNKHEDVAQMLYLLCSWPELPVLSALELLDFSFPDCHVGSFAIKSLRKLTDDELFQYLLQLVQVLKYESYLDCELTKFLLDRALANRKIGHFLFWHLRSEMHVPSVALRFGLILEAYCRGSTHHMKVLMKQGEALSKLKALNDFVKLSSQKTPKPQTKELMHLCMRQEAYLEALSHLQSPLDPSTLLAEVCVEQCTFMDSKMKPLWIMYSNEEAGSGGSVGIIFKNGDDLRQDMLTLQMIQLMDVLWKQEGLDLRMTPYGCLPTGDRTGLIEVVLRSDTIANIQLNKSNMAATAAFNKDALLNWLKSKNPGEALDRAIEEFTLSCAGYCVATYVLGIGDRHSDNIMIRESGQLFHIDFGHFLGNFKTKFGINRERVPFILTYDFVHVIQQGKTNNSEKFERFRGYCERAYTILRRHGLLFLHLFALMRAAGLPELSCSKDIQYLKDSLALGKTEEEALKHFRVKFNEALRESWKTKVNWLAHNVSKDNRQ
Sequence (P27986 whole entry partner): as the sequence (P27986 whole entry partner) above
Assay: PI3K δ inhibition assay (TLC lipid kinase or HTRF)
Type: biochemical
Conditions: not given
Summary of the method: as §1

| SMILES | IC50 [nM] |
| --- | --- |
| CC(=O)Nc1nc2ccc(-c3nn(Cc4cc5ccccc5nc4CCN4CCCC4)c4ncnc(N)c34)cc2s1 [Compound 166] | < 100 |
| CC(C)Oc1nc2ccccc2cc1Cn1nc(-c2ccc3nc(N)sc3c2)c2c(N)ncnc21 [Compound 159] | < 100 |
| Nc1ncc2cc(-c3nn(Cc4cc5ccccc5nc4N4CCOCC4)c4ncnc(N)c34)ccc2n1 [Compound 139] | < 100 |
| Nc1ncnc2c1c(-c1cc(O)cc(F)c1)nn2Cc1cc2ccccc2nc1-c1ccccc1 [Compound 57] | < 100 |
| CC(C)c1ccccc1-c1nc2ccccc2cc1Cn1nc(-c2cc(O)cc(F)c2)c2c(N)ncnc21 [Compound 17] | < 100 |
| Nc1ncnc2c1c(-c1cc(O)cc(F)c1)nn2Cc1cc2ccccc2nc1N1CCOCC1 [Compound 63] | < 100 |
| Cc1ccccc1-c1nc2ccccc2cc1Cn1nc(-c2ccc3oc(N)nc3c2)c2c(N)ncnc21 [Compound 133] | < 100 |
| Nc1ccc2cc(-c3nn(Cc4cc5ccccc5nc4-c4ccccc4)c4ncnc(N)c34)ccc2n1 [Compound 144] | < 100 |
| Nc1nc2cc(-c3nn(Cc4cc5ccccc5nc4-c4ccccc4F)c4ncnc(N)c34)ccc2o1 [Compound 137] | < 100 |
| CC(Nc1ncnc2[nH]cnc12)c1cc2ccccc2nc1N1CCN(C)CC1 (centres unmarked) [Compound 82] | < 100 |
| Nc1nc2cc(-c3nn(Cc4cc5ccccc5nc4N4CCCC4)c4ncnc(N)c34)ccc2[nH]1 [Compound 153] | < 100 |
| CCC(c1cc2ccccc2nc1N1CCCC1)n1nc(-c2cccc(O)c2)c2c(N)ncnc21 (centres unmarked) [Compound 39] | < 100 |
| Cc1ccccc1-c1nc2ccccc2cc1Cn1nc(-c2ccc3ncnc(N)c3c2)c2c(N)ncnc21 [Compound 134] | < 100 |
| CC(C)N1CCN(c2nc3ccccc3cc2Cn2nc(-c3cc(O)cc(F)c3)c3c(N)ncnc32)CC1 [Compound 69] | < 100 |
| Nc1ncnc2c1c(-c1ccc3cn[nH]c3c1)nn2CC1=Cc2ccccc2NC1N1CCCC1 (centres unmarked) [Compound 81] | < 100 |
| CN1CCN(c2nc3ccccc3cc2Cn2nc(-c3ccc4cc(N)sc4c3)c3c(N)ccnc32)CC1 [Compound 80] | < 100 |

Target: p110β/p85α (Homo sapiens, UniProt P42338)
Sequence (P42338 whole entry, looked up): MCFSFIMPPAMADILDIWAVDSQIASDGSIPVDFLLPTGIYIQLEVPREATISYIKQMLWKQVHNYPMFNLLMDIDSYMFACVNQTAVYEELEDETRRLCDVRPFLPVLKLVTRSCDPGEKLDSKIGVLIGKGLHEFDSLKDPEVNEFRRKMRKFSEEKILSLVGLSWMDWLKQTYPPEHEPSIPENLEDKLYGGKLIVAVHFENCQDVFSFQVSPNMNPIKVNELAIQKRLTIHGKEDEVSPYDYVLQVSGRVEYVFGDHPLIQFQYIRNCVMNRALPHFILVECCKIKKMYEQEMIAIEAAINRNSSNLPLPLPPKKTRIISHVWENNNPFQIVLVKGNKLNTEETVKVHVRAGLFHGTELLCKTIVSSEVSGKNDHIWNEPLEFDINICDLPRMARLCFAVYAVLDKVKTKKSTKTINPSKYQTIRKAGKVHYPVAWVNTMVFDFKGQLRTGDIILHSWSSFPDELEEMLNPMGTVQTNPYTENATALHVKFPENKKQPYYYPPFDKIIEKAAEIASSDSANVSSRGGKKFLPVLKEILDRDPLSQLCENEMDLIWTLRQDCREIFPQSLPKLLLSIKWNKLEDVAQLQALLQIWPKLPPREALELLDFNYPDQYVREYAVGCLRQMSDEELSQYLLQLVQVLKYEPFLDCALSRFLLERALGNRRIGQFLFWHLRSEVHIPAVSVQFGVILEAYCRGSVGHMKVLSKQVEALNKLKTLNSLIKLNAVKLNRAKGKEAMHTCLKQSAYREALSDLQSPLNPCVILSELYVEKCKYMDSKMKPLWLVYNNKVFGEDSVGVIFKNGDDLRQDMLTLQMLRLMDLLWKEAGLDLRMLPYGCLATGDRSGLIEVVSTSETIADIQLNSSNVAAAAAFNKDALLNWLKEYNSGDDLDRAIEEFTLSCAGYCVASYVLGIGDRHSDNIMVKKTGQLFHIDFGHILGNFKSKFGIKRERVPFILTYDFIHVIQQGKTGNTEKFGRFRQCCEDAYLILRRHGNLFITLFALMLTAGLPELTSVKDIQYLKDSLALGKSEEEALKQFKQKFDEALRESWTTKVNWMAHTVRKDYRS
Assay: PI3K β inhibition assay (TLC lipid kinase or HTRF)
Type: biochemical
Conditions: read-out: PI3K β IC50
Summary of the method: as §1

| SMILES | IC50 [nM] |
| --- | --- |
| CC(=O)Nc1nc2ccc(-c3nn(Cc4cc5ccccc5nc4CCN4CCCC4)c4ncnc(N)c34)cc2s1 [Compound 166] | > 1000 |
| CC(C)Oc1nc2ccccc2cc1Cn1nc(-c2ccc3nc(N)sc3c2)c2c(N)ncnc21 [Compound 159] | > 1000 |
| Nc1ncc2cc(-c3nn(Cc4cc5ccccc5nc4N4CCOCC4)c4ncnc(N)c34)ccc2n1 [Compound 139] | < 100 |
| Nc1ncnc2c1c(-c1cc(O)cc(F)c1)nn2Cc1cc2ccccc2nc1-c1ccccc1 [Compound 57] | 100 to 1000 |
| CC(C)c1ccccc1-c1nc2ccccc2cc1Cn1nc(-c2cc(O)cc(F)c2)c2c(N)ncnc21 [Compound 17] | 100 to 1000 |
| Nc1ncnc2c1c(-c1cc(O)cc(F)c1)nn2Cc1cc2ccccc2nc1N1CCOCC1 [Compound 63] | > 1000 |
| Cc1ccccc1-c1nc2ccccc2cc1Cn1nc(-c2ccc3oc(N)nc3c2)c2c(N)ncnc21 [Compound 133] | > 1000 |
| Nc1ccc2cc(-c3nn(Cc4cc5ccccc5nc4-c4ccccc4)c4ncnc(N)c34)ccc2n1 [Compound 144] | > 1000 |
| Nc1nc2cc(-c3nn(Cc4cc5ccccc5nc4-c4ccccc4F)c4ncnc(N)c34)ccc2o1 [Compound 137] | > 1000 |
| CC(Nc1ncnc2[nH]cnc12)c1cc2ccccc2nc1N1CCN(C)CC1 (centres unmarked) [Compound 82] | > 1000 |
| Nc1nc2cc(-c3nn(Cc4cc5ccccc5nc4N4CCCC4)c4ncnc(N)c34)ccc2[nH]1 [Compound 153] | 100 to 1000 |
| CCC(c1cc2ccccc2nc1N1CCCC1)n1nc(-c2cccc(O)c2)c2c(N)ncnc21 (centres unmarked) [Compound 39] | > 1000 |
| Cc1ccccc1-c1nc2ccccc2cc1Cn1nc(-c2ccc3ncnc(N)c3c2)c2c(N)ncnc21 [Compound 134] | > 1000 |
| CC(C)N1CCN(c2nc3ccccc3cc2Cn2nc(-c3cc(O)cc(F)c3)c3c(N)ncnc32)CC1 [Compound 69] | > 1000 |
| Nc1ncnc2c1c(-c1ccc3cn[nH]c3c1)nn2CC1=Cc2ccccc2NC1N1CCCC1 (centres unmarked) [Compound 81] | > 1000 |
| CN1CCN(c2nc3ccccc3cc2Cn2nc(-c3ccc4cc(N)sc4c3)c3c(N)ccnc32)CC1 [Compound 80] | < 100 |

System: Balb/c splenic B cells
Assay: B cell activation and proliferation assay (Alamar Blue)
Type: cell-based, mouse
Conditions: Mus musculus, B-cell
Summary of the method: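 Purified Balb/c splenic B cells, 50,000/well, pretreated with compound 30 min (0.2% DMSO), then stimulated with 10 ug/ml LPS or 5 ug/ml anti-IgM F(ab′)2 plus 2 ng/ml IL4 (cocktail concentrations) for 72 h at 37 °C. Alamar Blue 5 h, fluorescence 560/590 nm; IC50/EC50 calculated.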

| SMILES | EC50 [nM] |
| --- | --- |
| CC(=O)Nc1nc2ccc(-c3nn(Cc4cc5ccccc5nc4CCN4CCCC4)c4ncnc(N)c34)cc2s1 [Compound 166] | < 100 |
| CC(C)Oc1nc2ccccc2cc1Cn1nc(-c2ccc3nc(N)sc3c2)c2c(N)ncnc21 [Compound 159] | > 1000 |
| Nc1ncc2cc(-c3nn(Cc4cc5ccccc5nc4N4CCOCC4)c4ncnc(N)c34)ccc2n1 [Compound 139] | < 100 |
| Nc1ncnc2c1c(-c1cc(O)cc(F)c1)nn2Cc1cc2ccccc2nc1-c1ccccc1 [Compound 57] | < 100 |
| CC(C)c1ccccc1-c1nc2ccccc2cc1Cn1nc(-c2cc(O)cc(F)c2)c2c(N)ncnc21 [Compound 17] | < 100 |
| Nc1ncnc2c1c(-c1cc(O)cc(F)c1)nn2Cc1cc2ccccc2nc1N1CCOCC1 [Compound 63] | < 100 |
| Cc1ccccc1-c1nc2ccccc2cc1Cn1nc(-c2ccc3oc(N)nc3c2)c2c(N)ncnc21 [Compound 133] | 100 to 1000 |
| Nc1ccc2cc(-c3nn(Cc4cc5ccccc5nc4-c4ccccc4)c4ncnc(N)c34)ccc2n1 [Compound 144] | < 100 |
| Nc1nc2cc(-c3nn(Cc4cc5ccccc5nc4-c4ccccc4F)c4ncnc(N)c34)ccc2o1 [Compound 137] | 100 to 1000 |
| CC(Nc1ncnc2[nH]cnc12)c1cc2ccccc2nc1N1CCN(C)CC1 (centres unmarked) [Compound 82] | < 100 |
| Nc1nc2cc(-c3nn(Cc4cc5ccccc5nc4N4CCCC4)c4ncnc(N)c34)ccc2[nH]1 [Compound 153] | 100 to 1000 |
| CCC(c1cc2ccccc2nc1N1CCCC1)n1nc(-c2cccc(O)c2)c2c(N)ncnc21 (centres unmarked) [Compound 39] | < 100 |
| Cc1ccccc1-c1nc2ccccc2cc1Cn1nc(-c2ccc3ncnc(N)c3c2)c2c(N)ncnc21 [Compound 134] | 100 to 1000 |
| CC(C)N1CCN(c2nc3ccccc3cc2Cn2nc(-c3cc(O)cc(F)c3)c3c(N)ncnc32)CC1 [Compound 69] | < 100 |
| Nc1ncnc2c1c(-c1ccc3cn[nH]c3c1)nn2CC1=Cc2ccccc2NC1N1CCCC1 (centres unmarked) [Compound 81] | 100 to 1000 |
| CN1CCN(c2nc3ccccc3cc2Cn2nc(-c3ccc4cc(N)sc4c3)c3c(N)ccnc32)CC1 [Compound 80] | < 100 |

Target: p110γ (Homo sapiens (Human), UniProt P48736)
Sequence (P48736 whole entry): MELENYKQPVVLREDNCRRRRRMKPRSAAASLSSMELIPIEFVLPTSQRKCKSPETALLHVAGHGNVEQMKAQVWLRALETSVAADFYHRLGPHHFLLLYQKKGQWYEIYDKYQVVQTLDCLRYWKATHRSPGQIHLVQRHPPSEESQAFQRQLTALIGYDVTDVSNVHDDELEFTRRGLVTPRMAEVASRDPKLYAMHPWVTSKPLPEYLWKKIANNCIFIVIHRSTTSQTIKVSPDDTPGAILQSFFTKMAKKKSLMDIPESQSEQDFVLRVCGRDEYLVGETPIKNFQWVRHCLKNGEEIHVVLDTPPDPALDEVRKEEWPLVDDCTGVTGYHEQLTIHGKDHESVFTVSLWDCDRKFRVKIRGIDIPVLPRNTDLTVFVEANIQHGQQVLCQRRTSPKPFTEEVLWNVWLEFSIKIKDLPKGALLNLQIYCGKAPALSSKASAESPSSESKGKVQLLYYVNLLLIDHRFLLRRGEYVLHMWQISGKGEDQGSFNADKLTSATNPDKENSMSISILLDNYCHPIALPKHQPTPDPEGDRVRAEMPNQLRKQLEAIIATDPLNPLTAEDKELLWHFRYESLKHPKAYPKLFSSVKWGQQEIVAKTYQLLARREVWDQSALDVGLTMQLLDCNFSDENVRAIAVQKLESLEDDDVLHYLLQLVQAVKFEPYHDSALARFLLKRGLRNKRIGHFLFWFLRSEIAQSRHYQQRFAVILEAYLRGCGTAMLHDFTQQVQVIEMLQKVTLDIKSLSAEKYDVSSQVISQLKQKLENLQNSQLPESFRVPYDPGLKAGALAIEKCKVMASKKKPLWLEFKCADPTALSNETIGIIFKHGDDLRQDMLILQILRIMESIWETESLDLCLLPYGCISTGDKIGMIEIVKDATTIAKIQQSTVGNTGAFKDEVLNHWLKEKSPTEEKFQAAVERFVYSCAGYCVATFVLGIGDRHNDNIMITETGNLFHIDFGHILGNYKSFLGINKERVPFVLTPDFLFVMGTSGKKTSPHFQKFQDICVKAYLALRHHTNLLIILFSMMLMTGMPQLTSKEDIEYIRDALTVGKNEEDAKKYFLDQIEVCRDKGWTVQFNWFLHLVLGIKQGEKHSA
Assay: PI3K γ inhibition assay (TLC lipid kinase or HTRF)
Type: biochemical
Conditions: not given
Summary of the method: as §1

| SMILES | IC50 [nM] |
| --- | --- |
| CC(=O)Nc1nc2ccc(-c3nn(Cc4cc5ccccc5nc4CCN4CCCC4)c4ncnc(N)c34)cc2s1 [Compound 166] | 100 to 1000 |
| CC(C)Oc1nc2ccccc2cc1Cn1nc(-c2ccc3nc(N)sc3c2)c2c(N)ncnc21 [Compound 159] | < 100 |
| Nc1ncc2cc(-c3nn(Cc4cc5ccccc5nc4N4CCOCC4)c4ncnc(N)c34)ccc2n1 [Compound 139] | < 100 |
| Nc1ncnc2c1c(-c1cc(O)cc(F)c1)nn2Cc1cc2ccccc2nc1-c1ccccc1 [Compound 57] | < 100 |
| CC(C)c1ccccc1-c1nc2ccccc2cc1Cn1nc(-c2cc(O)cc(F)c2)c2c(N)ncnc21 [Compound 17] | < 100 |
| Nc1ncnc2c1c(-c1cc(O)cc(F)c1)nn2Cc1cc2ccccc2nc1N1CCOCC1 [Compound 63] | 100 to 1000 |
| Cc1ccccc1-c1nc2ccccc2cc1Cn1nc(-c2ccc3oc(N)nc3c2)c2c(N)ncnc21 [Compound 133] | < 100 |
| Nc1ccc2cc(-c3nn(Cc4cc5ccccc5nc4-c4ccccc4)c4ncnc(N)c34)ccc2n1 [Compound 144] | < 100 |
| Nc1nc2cc(-c3nn(Cc4cc5ccccc5nc4-c4ccccc4F)c4ncnc(N)c34)ccc2o1 [Compound 137] | < 100 |
| CC(Nc1ncnc2[nH]cnc12)c1cc2ccccc2nc1N1CCN(C)CC1 (centres unmarked) [Compound 82] | > 1000 |
| Nc1nc2cc(-c3nn(Cc4cc5ccccc5nc4N4CCCC4)c4ncnc(N)c34)ccc2[nH]1 [Compound 153] | < 100 |
| CCC(c1cc2ccccc2nc1N1CCCC1)n1nc(-c2cccc(O)c2)c2c(N)ncnc21 (centres unmarked) [Compound 39] | > 1000 |
| Cc1ccccc1-c1nc2ccccc2cc1Cn1nc(-c2ccc3ncnc(N)c3c2)c2c(N)ncnc21 [Compound 134] | < 100 |
| CC(C)N1CCN(c2nc3ccccc3cc2Cn2nc(-c3cc(O)cc(F)c3)c3c(N)ncnc32)CC1 [Compound 69] | > 1000 |
| Nc1ncnc2c1c(-c1ccc3cn[nH]c3c1)nn2CC1=Cc2ccccc2NC1N1CCCC1 (centres unmarked) [Compound 81] | > 1000 |
| CN1CCN(c2nc3ccccc3cc2Cn2nc(-c3ccc4cc(N)sc4c3)c3c(N)ccnc32)CC1 [Compound 80] | < 100 |
